“Also recorded” adds a separate entry of the source.
Key:
rats [1] = details: inflammatory soup infusion; historical data; cited from earlier work
PACAP-38 = details: treatment with sumatriptan; cited from earlier work
TRPM3 [2] = type: cell-based, mouse; details: for TRPM3 dependence of agonist-induced PACAP release: mouse DRG and TG cells, wild type vs Trpm3 knockout
TRPM3 [3] = assay: CGRP release assay, wild type and Trpm3 knock out DRG and TG neurons; type: cell-based, mouse; details: for CGRP release from Trpm3 deficient sensory neurons: Trpm3 knock out DRG and TG neurons; for CGRP release from wild type sensory neurons: wild type DRG and TG neurons
TRPM3 [4] = type: cell-based, C57BL/6NJ mice and Sprague Dawley rats; details: cultured DRG neurons; agonist 30 min at 37° C.; PS 100 μM; ELISA
TRPM3 (SEQ ID NO: 2) = biological target: T1, TRPM3 (SEQ ID NO: 2) (Homo sapiens, UniProt Q9HCF6); assay: Calcium mobilisation assay, HEK MSR II cells expressing canonical TRPM3; type: cell-based; details: for Relative agonist potency of the isomers of CIM0216 in calcium mobilisation assay: R-isomer vs S-isomer
T1 construct: expressed in transfected cells; host or cells: HEK MSR II cells transduced with BacMam virus (codon optimised cDNA)
Procedure: (§1) Example 3—Calcium mobilisation assay and cell lines Calcium mobilisation assays were performed in HEK MSR II cells loaded with the calcium indicator dye Fluo4. The cells were induced to express TRPM3 (SEQ ID NO: 2) or mutants thereof by transducing them with Bacmam virus containing the codon optimised cDNA sequence for the required TRPM3 variant at a multiplicity of infection of approximately 40 for 48 hours prior to the experiment. Cells were incubated in the presence of FLUO4-AM and TRPM3 inhibitors for approx 1.5 hrs prior to transfer to a FLIPR where the cells were treated with TRPM3 agonists to induce calcium mobilisation. Fluo4 fluorescence was monitored for 10 min. As a positive control the cells were then treated with the calcium ionophore ionomycin and the fluorescence monitored for a further 3 min.

[5] = biological target: T2, variant of SEQID NO: 2 having the R1670Q mutation (Homo sapiens, UniProt Q9HCF6, R1695Q); assay: Calcium mobilisation assay, HEK MSR II cells expressing TRPM3 R1670Q variant; type: cell-based
T2 construct: expressed in transfected cells; host or cells: HEK MSR II cells transduced with BacMam virus (codon optimised cDNA)
Procedure: as §1

TRPM3 [6] = biological target: T3, TRPM3 (Mus musculus, UniProt J9SQF3); set-up: trigeminal neurons from mice; host or cells: trigeminal neurons from mice; details: Vriens et al., Neuron 2011; cited from earlier work
rats [7] = assay: Five-day rat dural infusion migraine model, periorbital von Frey testing; type: in vivo; details: for Sensitivity to periorbital von Frey stimulation compared to vehicle treated animals: Day 5 (after 4 infusions)
Procedure: The five-day rat Dural infusion migraine model is based on repeated inflammatory dural stimulation to mimic the repeated activation of dural afferents believed to occur in patients with recurrent migraine headache. In this model, rats are tested in the periorbital region for mechanical allodynia (a pain response to stimuli which are not normally painful) using von Frey fibres, which are small calibrated fibres which deliver a calibrated amount of force.
The surgery, infusion, and testing followed the modification of the method of Oshinsky & Gomoncharconsiri, 2007, supra. Briefly, rats were habituated and trained for 1-2 weeks and then fitted with a stainless-steel cannula (22GA, Plastics One) under isoflurane anaesthesia. […] Special attention was given not to disturb the dura. A custom flange guide cannula (22GA, Plastics One) was inserted into the hole (cut 0.5 mm below pedestal). The cannula was fixed to the bone with small screws and dental cement. A dummy that extended just past the end of the cannula was inserted to prevent scar tissue from forming, and thus clogging the cannula. Animals were allowed 1-2 weeks of recovery before testing and infusions began.
Periorbital thresholds were monitored during the recovery period to ensure the thresholds returned to pre-surgery baselines. […] Extra animals were included to account for any post-surgery animal that needed to be excluded.
After recovering from surgery, animals were infused supra-durally with treatments according to Table 1 for 5 consecutive days. Under isoflurane, the animal's nose was place in the nose cone of the anaesthesia machine. Using a haemostat, the base of the flange cannula was clasped, and the dummy cannula was removed. A custom cannula injector was inserted into the flange cannula. With a Hamilton syringe and infusion pump at a rate of 1.759 μl/min 15 μl of formulations was delivered supra-durally.
Animals were randomly assigned to a treatment group (A-C) using a software generated randomization scheme. From the first day of sensitization, each animal was tested routinely (every 2-3 days) for changes in periorbital sensitivity by a blinded investigator.
Pre-infusion sensory testing occurred on Day 1 of the testing schedule to provide a point of comparison for subsequent testing. Sensory testing occurred according to the testing schedule established in Table 1, and prior to infusion when applicable. Sensory testing utilized von Frey filaments with reproducible calibrated buckling forces varying from 0.4-10 g utilizing the Chaplan up and down method. Allodynia was tested by perpendicularly touching the periorbital region causing slight buckling of the filament for approximately 5 seconds. Based on the response pattern and the force of the final filament, the periorbital threshold (g) was calculated (Chaplan et al., 1994, Quantitative assessment of tactile allodynia in the rat paw. Journal of neuroscience methods, 53(1), 55-63). The supra-dural infusions were above the dura in the right brain hemisphere; therefore, the right periorbital threshold data only was recorded. A positive response was characterized by several behavioural criteria: stroking the face with a forepaw, head withdrawal from the stimulus, and head shaking.

TRPM3 [8] = type: cell-based, C57BL/6NJ mice and Sprague Dawley rats; details: cultured TG neurons; agonist 30 min at 37° C.; ELISA
TRPM3 [9] = biological target: T3, TRPM3; details: Held et al., PNAS 2015; cited from earlier work
[10] = HEK MSR II cells, Bacmam transduction
[11] = supra-dural infusion 5 days, Pregnenolone sulphate 5 mM, CIM0216 215 μM

T2 sequence (Q9HCF6 1-1707 isoform Q9HCF6-2 R1670Q): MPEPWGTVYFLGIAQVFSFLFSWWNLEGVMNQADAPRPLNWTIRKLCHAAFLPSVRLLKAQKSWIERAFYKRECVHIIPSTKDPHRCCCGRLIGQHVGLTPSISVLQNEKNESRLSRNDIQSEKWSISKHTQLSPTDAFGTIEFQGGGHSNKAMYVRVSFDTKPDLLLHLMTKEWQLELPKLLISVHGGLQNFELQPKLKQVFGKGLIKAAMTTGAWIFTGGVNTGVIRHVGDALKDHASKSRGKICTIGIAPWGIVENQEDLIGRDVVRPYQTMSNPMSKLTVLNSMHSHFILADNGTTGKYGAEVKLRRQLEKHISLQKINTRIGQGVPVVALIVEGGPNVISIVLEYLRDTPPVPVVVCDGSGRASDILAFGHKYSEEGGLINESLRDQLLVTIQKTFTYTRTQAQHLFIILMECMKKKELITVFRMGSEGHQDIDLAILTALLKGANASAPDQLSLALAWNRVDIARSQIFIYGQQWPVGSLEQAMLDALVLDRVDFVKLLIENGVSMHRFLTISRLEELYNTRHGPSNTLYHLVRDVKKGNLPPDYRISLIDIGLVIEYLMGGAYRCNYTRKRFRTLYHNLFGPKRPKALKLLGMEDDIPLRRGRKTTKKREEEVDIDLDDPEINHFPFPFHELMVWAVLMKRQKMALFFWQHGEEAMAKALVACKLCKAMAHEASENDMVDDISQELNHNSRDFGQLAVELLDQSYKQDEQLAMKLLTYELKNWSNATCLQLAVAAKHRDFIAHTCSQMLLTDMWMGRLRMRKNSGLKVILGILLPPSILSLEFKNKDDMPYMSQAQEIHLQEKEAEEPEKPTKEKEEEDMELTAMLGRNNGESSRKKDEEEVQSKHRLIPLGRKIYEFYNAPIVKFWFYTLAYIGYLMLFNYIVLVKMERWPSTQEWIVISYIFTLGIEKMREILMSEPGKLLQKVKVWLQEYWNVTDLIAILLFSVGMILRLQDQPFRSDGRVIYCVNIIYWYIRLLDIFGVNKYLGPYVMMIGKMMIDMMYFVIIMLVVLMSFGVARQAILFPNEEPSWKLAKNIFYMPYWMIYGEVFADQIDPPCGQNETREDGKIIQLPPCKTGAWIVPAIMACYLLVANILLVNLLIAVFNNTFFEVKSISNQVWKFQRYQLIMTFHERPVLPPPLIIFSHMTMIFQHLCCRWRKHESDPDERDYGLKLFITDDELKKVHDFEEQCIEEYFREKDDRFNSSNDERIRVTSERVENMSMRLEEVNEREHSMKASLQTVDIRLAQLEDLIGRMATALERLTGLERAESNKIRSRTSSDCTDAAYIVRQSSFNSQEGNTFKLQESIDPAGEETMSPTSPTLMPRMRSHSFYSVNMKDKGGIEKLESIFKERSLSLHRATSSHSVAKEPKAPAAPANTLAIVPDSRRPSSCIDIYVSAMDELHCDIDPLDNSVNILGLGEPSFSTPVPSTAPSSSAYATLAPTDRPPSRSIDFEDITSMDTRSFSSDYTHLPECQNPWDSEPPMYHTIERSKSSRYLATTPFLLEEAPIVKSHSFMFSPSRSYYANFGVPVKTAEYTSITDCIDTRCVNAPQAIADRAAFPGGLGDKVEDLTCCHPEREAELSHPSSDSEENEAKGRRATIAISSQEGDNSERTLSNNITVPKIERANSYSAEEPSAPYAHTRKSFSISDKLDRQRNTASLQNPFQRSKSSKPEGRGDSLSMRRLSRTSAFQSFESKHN
T1 sequence (Q9HCF6 1-1707 isoform Q9HCF6-2): as the sequence (Q9HCF6 1-1707 isoform Q9HCF6-2 R1670Q) above, with Q1670R counted along it
T3 sequence (J9SQF3 whole entry, the tested form may be a part): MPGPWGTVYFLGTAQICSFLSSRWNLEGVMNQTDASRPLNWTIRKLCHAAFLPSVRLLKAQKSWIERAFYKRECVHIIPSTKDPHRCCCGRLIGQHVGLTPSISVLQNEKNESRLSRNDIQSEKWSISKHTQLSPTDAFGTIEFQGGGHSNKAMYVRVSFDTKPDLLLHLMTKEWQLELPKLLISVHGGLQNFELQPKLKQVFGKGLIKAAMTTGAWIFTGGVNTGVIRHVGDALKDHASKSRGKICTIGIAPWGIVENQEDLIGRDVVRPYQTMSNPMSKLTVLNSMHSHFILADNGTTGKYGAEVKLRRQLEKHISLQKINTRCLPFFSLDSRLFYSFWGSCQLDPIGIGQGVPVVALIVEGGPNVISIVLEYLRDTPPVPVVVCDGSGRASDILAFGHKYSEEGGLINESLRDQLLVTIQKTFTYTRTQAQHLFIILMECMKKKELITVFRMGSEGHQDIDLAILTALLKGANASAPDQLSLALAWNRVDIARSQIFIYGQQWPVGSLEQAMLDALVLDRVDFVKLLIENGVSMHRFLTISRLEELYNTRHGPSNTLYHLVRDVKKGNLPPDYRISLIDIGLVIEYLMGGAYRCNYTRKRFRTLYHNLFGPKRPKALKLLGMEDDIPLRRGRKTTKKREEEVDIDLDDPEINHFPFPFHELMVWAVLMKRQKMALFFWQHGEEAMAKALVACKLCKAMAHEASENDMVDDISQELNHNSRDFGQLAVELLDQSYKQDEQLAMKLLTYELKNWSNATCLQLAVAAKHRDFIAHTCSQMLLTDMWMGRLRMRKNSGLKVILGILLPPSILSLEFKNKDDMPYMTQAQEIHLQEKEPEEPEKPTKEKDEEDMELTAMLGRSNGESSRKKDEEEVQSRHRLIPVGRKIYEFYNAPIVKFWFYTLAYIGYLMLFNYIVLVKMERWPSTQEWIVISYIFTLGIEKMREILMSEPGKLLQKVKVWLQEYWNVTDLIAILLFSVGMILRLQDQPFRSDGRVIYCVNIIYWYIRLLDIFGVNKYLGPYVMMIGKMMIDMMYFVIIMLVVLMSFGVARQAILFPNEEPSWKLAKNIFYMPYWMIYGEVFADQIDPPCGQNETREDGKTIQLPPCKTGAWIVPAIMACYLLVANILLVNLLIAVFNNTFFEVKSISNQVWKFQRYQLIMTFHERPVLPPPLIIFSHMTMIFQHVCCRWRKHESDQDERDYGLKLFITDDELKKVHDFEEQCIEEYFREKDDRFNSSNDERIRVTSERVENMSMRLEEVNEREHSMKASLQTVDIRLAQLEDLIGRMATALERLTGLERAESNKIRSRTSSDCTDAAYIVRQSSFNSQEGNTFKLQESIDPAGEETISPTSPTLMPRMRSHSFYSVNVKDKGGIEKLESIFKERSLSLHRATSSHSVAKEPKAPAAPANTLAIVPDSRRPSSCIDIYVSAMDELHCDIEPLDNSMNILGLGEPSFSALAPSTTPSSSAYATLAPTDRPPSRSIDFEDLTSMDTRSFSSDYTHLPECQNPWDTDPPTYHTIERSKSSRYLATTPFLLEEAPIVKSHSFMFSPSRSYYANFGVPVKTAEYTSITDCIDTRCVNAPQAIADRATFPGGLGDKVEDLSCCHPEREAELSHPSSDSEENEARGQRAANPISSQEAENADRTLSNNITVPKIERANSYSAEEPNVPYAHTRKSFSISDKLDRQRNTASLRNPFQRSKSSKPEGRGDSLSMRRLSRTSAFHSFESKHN

Row | Compound | CGRP release from Trpm3 deficient sensory neurons (TRPM3 [3]) | CGRP release from DRG neurons induced by TRPM3 agonist (TRPM3 [4]) | TRPM3 dependence of agonist-induced PACAP release (TRPM3 [2]) | CGRP release from wild type sensory neurons (TRPM3 [3]) | Sensitivity to periorbital von Frey stimulation compared to vehicle treated animals (rats [7]) | Mechanical allodynia in the periorbital region (von Frey thresholds) (rats [7]; [11]) | CGRP release from TG neurons induced by TRPM3 agonist (TRPM3 [8]) | other results
1 | CNS(=O)(=O)Cc1ccc2[nH]cc(CCN(C)C)c2c1 [sumatriptan] |  |  |  |  |  |  |  | Mechanical nociception sensitivity (rats [1]): alleviated; PACAP-38 levels (PACAP-38): decreased PACAP-38 levels
2 | COc1cc(CNC(=O)CCCC/C=C/C(C)C)ccc1O [capsaicin] | could be induced by capsaicin |  |  |  |  |  |  | PACAP release from Trpm3 knockout cells (TRPM3 [2]; Trpm3 knockout mouse DRG and TG cells): still responsive; CGRP release from Trpm3 deficient sensory neurons (TRPM3 [3]; listed as Capsaicin): evoked CGRP release
3 | pregnenolone sulfate | absent | increased release of CGRP; also recorded: induce release of CGRP | dependent on TRPM3 | dose-dependent release of CGRP | effective in increasing sensitivity to periorbital von Frey (VF) stimulation as early as Day 5 | induce mechanical allodynia in the periorbital region of rats; also recorded: trigger mechanical allodynia in the periorbital region | increased release of CGRP; also recorded: demonstrated to be concentration dependent; also recorded: stimulate release of CGRP | Increase in FLUO4 fluorescence, canonical TRPM3 (TRPM3 (SEQ ID NO: 2); [10]): induced concentration-dependent increases in FLUO4 fluorescence; CGRP release from Trpm3 deficient sensory neurons (TRPM3 [3]; listed as PS): lacking; Increase in FLUO4 fluorescence, R1670Q variant [5, 10]: induced concentration-dependent increases in FLUO4 fluorescence; Potency at the R1670Q variant relative to canonical TRPM3 ([5]; greater at R1670Q, equal multiplicities of infection): 1.8 fold; Maximal fold change in fluorescence at R1670Q variant relative to canonical ([5]; larger at R1670Q, equal multiplicities of infection): 26%; Inward current in trigeminal neurons (TRPM3 [6]): induced an inward current
4 | Cc1cc(NC(=O)C(c2ccccc2)N2CCCc3ccccc32)no1 (racemic) [CIM0216, 2-(3,4-dihydroquinolin-1(2H)-yl)-N-(5-methylisoxazol-3-yl)-2-phenylacetamide] | absent; also recorded: lacking | induced a concentration dependent release of CGRP; also recorded: induce release of CGRP | dependent on TRPM3 | dose-dependent release of CGRP | effective in increasing sensitivity to periorbital von Frey (VF) stimulation as early as Day 5 | induce mechanical allodynia in the periorbital region of rats; also recorded: trigger mechanical allodynia in the periorbital region | induced a concentration dependent release of CGRP; also recorded: stimulate release of CGRP | CGRP release from isolated mouse hind paw skin (TRPM3 [9]): induced to release CGRP; Overt adverse effects / body weight (rats [7]; [11]): do not cause overt adverse effects
5 | Cc1cc(NC(=O)[C@@H](C)N2CCCc3ccccc32)no1 (single isomer, unassigned) [R-isomer] |  |  |  |  |  |  |  | Relative agonist potency of the isomers of CIM0216 in calcium mobilisation assay (TRPM3 (SEQ ID NO: 2)): more potent agonist compared to the S-isomer; Relative agonist potency of the isomers of CIM0216 in calcium mobilisation assay (TRPM3 (SEQ ID NO: 2); listed as (R)-2-(3,4-dihydroquinolin-1(2H)-yl)-N-(5-methylisoxazol-3-yl)propenamide): more potent agonist than the (S)-isomer
